According to patent publication US20240199605A1, “SMALL MOLECULAR INHIBITORS OF NF-kB INDUCING KINASE” (Janssen Pharmaceutica NV, priority 2019, published 2024):

What was measured:
[1] = target: recombinant human NF-kappaB-inducing kinase (NIK/MAP3K14) (Homo sapiens (Human), UniProt Q99558); assay: Inhibition of auto-phosphorylation of recombinant human NIK/MAP3K14 (AlphaScreen); format: biochemical; conditions: NIK auto-phosphorylation, 5 μM ATP, 1 nM NIK, 2 h at 25° C.; average of values
Outline: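 AlphaScreen read-out (anti-phospho-IKK Ser176/180 antibody, Protein A acceptor and glutathione donor beads) of NIK auto-phosphorylation. Reaction: 1 nM enzyme, 5 μM ATP, Tris pH 7.5 buffer with Mg2+ and vanadate, 2 h at 25° C., final DMSO 0.7%. IC50 came from a sigmoidal curve fit.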

[2] = test system: p-IKKα levels in L363 (NIK translocated multiple myeloma) cells; assay: Effect of compounds on p-IKKα levels in L363 cells (AlphaLISA SureFire Ultra); format: cell-based, human; conditions: Homo sapiens, L-363, 6 h, BAFF stimulated, MG132, 6 h, average of values, read-out: Assay 2 IC50
Outline: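 Inhibition of p-IKKα (Ser176/180) read by AlphaLISA after 6 h, 37 °C compound exposure (11-point 1:3 series, 0.3% DMSO) of L363 cells pre-incubated overnight ± 250 ng/ml BAFF and plated ± BAFF ± 10 μM MG132. Normalised to BAFF/MG132/DMSO and unstimulated controls; IC50 by sigmoidal fitting, duplicates.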

Chain of recombinant human NF-kappaB-inducing kinase (NIK/MAP3K14) (Q99558 whole entry): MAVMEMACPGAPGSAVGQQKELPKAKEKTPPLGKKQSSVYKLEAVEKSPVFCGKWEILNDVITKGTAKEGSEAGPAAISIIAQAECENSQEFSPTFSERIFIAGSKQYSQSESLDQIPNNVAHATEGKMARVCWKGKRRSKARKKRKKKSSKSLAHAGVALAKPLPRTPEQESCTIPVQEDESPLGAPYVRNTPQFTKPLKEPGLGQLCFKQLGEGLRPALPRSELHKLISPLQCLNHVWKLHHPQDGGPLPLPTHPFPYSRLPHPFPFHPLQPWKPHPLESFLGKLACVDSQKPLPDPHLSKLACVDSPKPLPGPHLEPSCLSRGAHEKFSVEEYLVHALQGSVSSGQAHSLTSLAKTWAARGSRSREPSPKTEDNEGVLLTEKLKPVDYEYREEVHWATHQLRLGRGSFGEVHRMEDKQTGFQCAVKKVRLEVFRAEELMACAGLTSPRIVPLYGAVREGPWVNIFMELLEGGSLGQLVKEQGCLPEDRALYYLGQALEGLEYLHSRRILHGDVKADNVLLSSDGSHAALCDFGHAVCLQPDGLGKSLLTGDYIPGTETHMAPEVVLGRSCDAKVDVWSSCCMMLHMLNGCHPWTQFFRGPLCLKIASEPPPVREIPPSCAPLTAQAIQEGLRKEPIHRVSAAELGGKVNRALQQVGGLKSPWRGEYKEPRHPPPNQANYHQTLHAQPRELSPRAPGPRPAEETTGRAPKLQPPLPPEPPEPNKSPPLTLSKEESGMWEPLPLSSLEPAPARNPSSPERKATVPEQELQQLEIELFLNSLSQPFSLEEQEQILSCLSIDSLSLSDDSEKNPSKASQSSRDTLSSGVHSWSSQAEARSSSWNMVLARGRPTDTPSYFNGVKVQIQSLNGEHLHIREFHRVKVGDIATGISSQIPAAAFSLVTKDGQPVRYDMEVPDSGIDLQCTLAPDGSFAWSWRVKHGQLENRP

| Compound | IC50 [1] [nM] | IC50 [2] [nM] |
| --- | --- | --- |
| Cc1cnc(N)c2nc(-c3cccc(C#C[C@]4(O)CCN(C)C4=O)c3)nc(C)c12 [Example 138, (R)-3-((3-(8-Amino-4,5-dimethylpyrido[3,4-d]pyrimidin-2-yl)phenyl)ethynyl)-3-hydroxy-1-methylpyrrolidin-2-one] | ≤ 0.5 | 9.6 |
| COc1ccc(C#C[C@]2(O)CCN(C)C2=O)cc1-c1ccc2ncnc(N)c2n1 [Example 139, (R)-3-((3-(4-Aminopyrido[3,2-d]pyrimidin-6-yl)-4-methoxyphenyl)ethynyl)-3-hydroxy-1-methylpyrrolidin-2-one] | 2.9 | 22 |
| CN1CC[C@@](O)(C#Cc2cccc(-c3ncc4c(-c5cnn(CCCC#N)c5)cnc(N)c4n3)c2)C1=O [Example 140, (R)-4-[4-[8-Amino-2-[3-[2-(3-hydroxy-1-methyl-2-oxo-pyrrolidin-3-yl)ethynyl]phenyl]pyrido[3,4-d]pyrimidin-5-yl]pyrazol-1-yl]butanenitrile] | ≤ 0.5 | 6.2 |
| CN1CC[C@@](O)(C#Cc2cccc(-c3cc4c(N)ncnc4s3)c2)C1=O [Example 141, (R)-3-((3-(4-Aminothieno[2,3-d]pyrimidin-6-yl)phenyl)ethynyl)-3-hydroxy-1-methylpyrrolidin-2-one] | 16 | 2450 |
| CN1CC[C@@](O)(C#Cc2cccc(-c3nc4c(N)ncnc4o3)c2)C1=O [Example 142, (R)-3-((3-(7-Aminooxazolo[5,4-d]pyrimidin-2-yl)phenyl)ethynyl)-3-hydroxy-1-methylpyrrolidin-2-one] | 350 | > 5000 |
| CN1CC[C@@](O)(C#Cc2cccc(-c3nc4c(N)ncnc4n3C)c2)C1=O [Example 143, (R)-3-((3-(6-Amino-9-methyl-9H-purin-8-yl)phenyl)ethynyl)-3-hydroxy-1-methylpyrrolidin-2-one] | 420 | > 5000 |
| Nc1ncnc2cnc(-c3cccc(C#C[C@]4(O)CCc5cccnc54)c3)nc12 [Example 144, (R)-7-((3-(8-Aminopyrimido[5,4-d]pyrimidin-2-yl)phenyl)ethynyl)-6,7-dihydro-5H-cyclopenta[b]pyridin-7-ol] | 2290 | > 5000 |
| CN1CC[C@@](O)(C#Cc2cccc(-c3ncc4c(CN5CCCCC5)cnc(N)c4n3)c2)C1=O [Example 145, (R)-3-[2-[3-[8-Amino-5-(1-piperidylmethyl)pyrido[3,4-d]pyrimidin-2-yl]phenyl]ethynyl]-3-hydroxy-1-methyl-pyrrolidin-2-one] | 3.6 | 280 |
| Nc1ncnc2cnc(-c3cccc(C#C[C@]4(O)CCn5ccnc54)c3)nc12 [Example 146, (R)-7-[2-[3-(4-Aminopyrimido[5,4-d]pyrimidin-6-yl)phenyl]ethynyl]-5,6-dihydropyrrolo[1,2-a]imidazol-7-ol] | ≤ 0.5 | 2.7 |
| CN1CC[C@@](O)(C#Cc2cccc(-c3ncc4c(-c5ccc(C(F)(F)F)nc5)cnc(N)c4n3)c2)C1=O [Example 147, (R)-3-[2-[3-[8-Amino-5-[6-(trifluoromethyl)-3-pyridyl]pyrido[3,4-d]pyrimidin-2-yl]phenyl]ethynyl]-3-hydroxy-1-methyl-pyrrolidin-2-one] | ≤ 0.5 | 14 |
| Cc1nc(N)c2nc(-c3cccc(C#C[C@]4(O)CCN(C)C4=O)c3)cnc2n1 [Example 148, (R)-3-[2-[3-(4-Amino-2-methyl-pteridin-6-yl)phenyl]ethynyl]-3-hydroxy-1-methyl-pyrrolidin-2-one] | 1.4 | 370 |
| [2H]c1nc(N)c2nc(-c3cc(C#C[C@]4(O)CCN(C)C4=O)ccc3C)ccc2n1 [Example 149, (R)-3-((3-(4-Aminopyrido[3,2-d]pyrimidin-6-yl-2-d)-4-methylphenyl)ethynyl)-3-hydroxy-1-methylpyrrolidin-2-one] | ≤ 0.5 | 17 |
| Cc1nc(N)c2nc(-c3cc(C#C[C@]4(O)CCN(C)C4=O)ccc3C)ccc2n1 [Example 150, (R)-3-((3-(4-Amino-2-methylpyrido[3,2-d]pyrimidin-6-yl)-4-methylphenyl)ethynyl)-3-hydroxy-1-methylpyrrolidin-2-one] | 4.7 | 320 |
| CN1CC[C@@](O)(C#Cc2cccc(-c3ncc4c(CC(C)(C)C)cnc(N)c4n3)c2)C1=O [Example 151, (R)-3-((3-(8-Amino-5-neopentylpyrido[3,4-d]pyrimidin-2-yl)phenyl)ethynyl)-3-hydroxy-1-methylpyrrolidin-2-one] | 0.7 | 28 |
| Cc1ccc(-c2nc3c(N)ncnc3s2)cc1C#C[C@]1(O)CCN(C)C1=O [Example 152, (R)-3-((5-(7-Aminothiazolo[5,4-d]pyrimidin-2-yl)-2-methylphenyl)ethynyl)-3-hydroxy-1-methylpyrrolidin-2-one] | 3.8 | 200 |
| Cc1c(C#C[C@]2(O)CCN(C)C2=O)cccc1-c1nc2c(N)ncnc2s1 [Example 154, (R)-3-((3-(7-Aminothiazolo[5,4-d]pyrimidin-2-yl)-2-methylphenyl)ethynyl)-3-hydroxy-1-methylpyrrolidin-2-one] | 620 | > 5000 |
| Nc1ncnc2cnc(-c3cccc(C#C[C@@]4(O)CCc5cccnc54)c3)nc12 [Example 155, (S)-7-((3-(8-Aminopyrimido[5,4-d]pyrimidin-2-yl)phenyl)ethynyl)-6,7-dihydro-5H-cyclopenta[b]pyridin-7-ol] | ≤ 0.5 | 6.1 |
| Cc1nc(N)c2nc(-c3cccc(C#C[C@]4(O)CCN(C)C4=O)c3)nc(C)c2n1 [Example 156, (R)-3-((3-(8-Amino-4,6-dimethylpyrimido[5,4-d]pyrimidin-2-yl)phenyl)ethynyl)-3-hydroxy-1-methylpyrrolidin-2-one] | 1.1 | 16 |
| Cc1nc(N)c2nc(-c3cccc(C#C[C@](C)(O)c4cnc(C)s4)c3)ccc2n1 [Example 157, (S)-4-(3-(4-Amino-2-methylpyrido[3,2-d]pyrimidin-6-yl)phenyl)-2-(2-methylthiazol-5-yl)but-3-yn-2-ol] | 3790 | > 5000 |
| Cc1nc(N)c2nc(-c3cccc(C#C[C@@](C)(O)c4cnc(C)s4)c3)ccc2n1 [Example 158, (R)-4-(3-(4-Amino-2-methylpyrido[3,2-d]pyrimidin-6-yl)phenyl)-2-(2-methylthiazol-5-yl)but-3-yn-2-ol] | 1930 | > 5000 |
| CN1CC[C@@](O)(C#Cc2cccc(N3CCc4ncnc(N)c4C3)c2)C1=O [Example 159, (R)-3-((3-(4-Amino-7,8-dihydropyrido[4,3-d]pyrimidin-6(5H)-yl)phenyl)ethynyl)-3-hydroxy-1-methylpyrrolidin-2-one] | 1.3 | 130 |
| [2H]c1nc(N)c2nc(-c3cc(C#C[C@]4(O)CCN(C)C4=O)ccc3OC)ccc2n1 [Example 160, (R)-3-((3-(4-Aminopyrido[3,2-d]pyrimidin-6-yl-2-d)-4-methoxyphenyl)ethynyl)-3-hydroxy-1-methylpyrrolidin-2-one] | 2.4 | 19 |
| COc1ccc(C#C[C@]2(O)CCN(C)C2=O)cc1-c1ccc2nc(C)nc(N)c2n1 [Example 161, (R)-3-((3-(4-Amino-2-methylpyrido[3,2-d]pyrimidin-6-yl)-4-methoxyphenyl)ethynyl)-3-hydroxy-1-methylpyrrolidin-2-one] | 7 | 78 |
| Cc1nc(N)c2nc(-c3cccc(C#C[C@](C)(O)c4scnc4C)c3)ccc2n1 [Example 162, (S)-4-(3-(4-Amino-2-methylpyrido[3,2-d]pyrimidin-6-yl)phenyl)-2-(4-methylthiazol-5-yl)but-3-yn-2-ol] | > 5000 | > 5000 |
| Cc1nc(N)c2nc(-c3cccc(C#C[C@@](C)(O)c4scnc4C)c3)ccc2n1 [Example 163, (R)-4-(3-(4-Amino-2-methylpyrido[3,2-d]pyrimidin-6-yl)phenyl)-2-(4-methylthiazol-5-yl)but-3-yn-2-ol] | 350 | > 5000 |
| Cc1nc(N)c2nc(-c3cccc(C#C[C@@](C)(O)c4nccs4)c3)ccc2n1 [Example 164, (R)-4-(3-(4-Amino-2-methylpyrido[3,2-d]pyrimidin-6-yl)phenyl)-2-(thiazol-2-yl)but-3-yn-2-ol] | 0.7 | 78 |
| Cc1nc(N)c2nc(-c3cccc(C#C[C@](C)(O)c4ncc(C)s4)c3)ccc2n1 [Example 166, (S)-4-(3-(4-Amino-2-methylpyrido[3,2-d]pyrimidin-6-yl)phenyl)-2-(5-methylthiazol-2-yl)but-3-yn-2-ol] | 4700 | > 5000 |
| Cc1nc(N)c2nc(-c3cccc(C#C[C@@](C)(O)c4ncc(C)s4)c3)ccc2n1 [Example 167, (R)-4-(3-(4-Amino-2-methylpyrido[3,2-d]pyrimidin-6-yl)phenyl)-2-(5-methylthiazol-2-yl)but-3-yn-2-ol] | 12 | 3470 |
| [2H]c1nc(N)c2nc(-c3cccc(C#C[C@]4(O)CCN(C)C4=O)c3)nc(C)c2n1 [Example 168, (R)-3-((3-(8-Amino-4-methylpyrimido[5,4-d]pyrimidin-2-yl-6-d)phenyl)ethynyl)-3-hydroxy-1-methylpyrrolidin-2-one] | 2.2 | 4.2 |
